Key:
[1] = system: human liver microsomes; experiment: In vitro kinetic study of PPL metabolism (substrate depletion) in human liver microsomes; type: in vitro ADME
Protocol: The in vitro kinetic study was performed setting the incubation conditions through the maintenance of initial velocity (V0); 0.45 mg/mL microsomal protein and 16 min time incubation were selected and the substrate concentration was ranged from 0.38 to 283.6 μM. The substrate depletion was quantified employing an analytical validated method (Tables S1, S2 and S3 and Fig. S1-Supplementary Information).
The metabolism was evaluated by measuring the rate of disappearance of the PPL peak. The incubations were performed in triplicate using 10 mL amber tubes. The metabolism medium consisted of substrate, a NADPH regeneration system solution A (1.3 mM NADP^+ and 3.3 mM glucose-6-phosphate), a NADPH regeneration system solution B (0.4 U/mL glucose-6-phosphate dehydrogenase), HLM and a potassium phosphate buffer pH 7.4 (100 mM) in a total volume of 200 μL. This microsomal medium was incubated in a shaking water bath at 37 °C. After pre-warming for 5 min at 37 °C to favor the formation of NADPH from the solutions A and B, the reaction was initiated by the addition of the HLM. To determine the enzymatic kinetic parameters, the linear conditions for microsomal protein concentration and for incubation time were optimized. The microsomal protein concentration was evaluated from 0.1 to 1.5 mg of protein per mL (n = 3), and the incubation time was varied from 0 to 40 min (n = 3). The linear range was obtained from these parameters and used to perform the substrate variation concentration at V0 conditions. The reactions were stopped by the addition of 200 μL of cold acetonitrile, gently agitated for 20 s and then centrifuged for 5 min at 2860x g. Finally, aliquots of the supernatant were removed and injected into the chromatographic system. Control incubations were performed in the absence of the cofactor solution and in the absence of the HLM. The difference between ‘with’ and ‘without’ NADPH was attributed to CYP450-mediated metabolism.
(§1) The kinetic parameters were calculated from nonlinear regression using GraphPad Prism Version 3.03 (San Diego, CA, USA). The Intrinsic Clearance (CLint) was obtained considering the Hill coefficient. The Unbounded Intrinsic Clearance (CLuint), Predicted in vivo Clearance (CL) and Hepatic Clearance (CLH) were determined according to Subramarian and Tracy[15] and Austin et al.[17]. Hepatic extraction ratio was calculated according to Kashuba et al.[21]. Dose-dependent inhibition parameters were determined employing SigmaPlot version 12.0 (Chicago, IL, USA). The Lineweaver-Burk plot was used to determine the inhibition profile. The second plot of slopes from Lineweaver-Burk plot versus PPL concentrations was utilized to calculate the Ki. The parameters kinact and KI in time-dependent inhibition were calculated employing GraphPad Prism Version 3.03.

[2] = Piperlongumine microsomal protein binding (ultrafiltration); type: in vitro ADME; settings: human, pooled human liver microsomes; PPL 127.70 μM; read-out: fumic (free fraction of the compound in the microsomal incubation)
Protocol: Piperlongumine-protein binding. An in vitro study with a microsomal and plasma protein was carried out using a concentration of PPL approximately corresponding to its S50 (n = 3). The plasma protein binding was evaluated to predict the in vivo clearance, using a plasma protein concentration of 42 mg/mL. The samples were incubated with pooled human liver microsomes at 37 °C as described in section above. The same V0 conditions obtained (protein concentration and incubation time) were applied in this study, but in the absence of the cofactor NADPH. Furthermore, a control sample without protein was analyzed simultaneously for comparison purposes. These mixtures were added to the centrifugal filter device (Microcon YM-30, 30,000 molecular weight cut-off; Millipore Corporation, Bedford, MA, USA) and centrifuged at 21800 x g for 30 min at 37 °C (Hitachi CF16RXII, Himac, Tokyo, Japan). The ultra-filtrate was directly assayed by high-performance liquid chromatography at the conditions previously described.

[3] = biological target: CYP1A2 (Homo sapiens, UniProt P05177); experiment: Mechanism-based (time-dependent) inhibition of CYP1A2 by piperlongumine; type: in vitro ADME; parameters: kinact: dose or concentration left out as unconfirmed; settings: human liver microsomes, pH 7.4, probe phenacetin […] µM
Protocol: Reactions were terminated as described above.
as §1

[4] = Piperlongumine stability assay (microsomal medium); type: physicochemical
Protocol: Method validation protocol and results. The quantification method of PPL was validated by following the European Medicines Agency (EMA) guidelines. Analytical curves were obtained by spiking 200 µL aliquots of HLM with PPL 0.38; 0.95; 9.45; 141.80; 236.34 and 283.61 µM. The linearity was carried out and assessed in triplicate. The linearity was determined using the correlation coefficient (r), the F test for lack-of-fit and a p value of 0.05. The MINITAB Release version 14.1 software (State College, PA, USA) was used to conduct the statistical analysis (Table S1). Carbamazepine (2120 µM) was used as internal standard, and the ratio of the peak area of the PPL and carbamazepine was defined as the analytical response. The lower limit of quantification (LLQ) was obtained by spiking the incubation mixture samples at a concentration of 0.38 µM. The selectivity of the method was assured by analyzing the standard solutions of reagents and the blank HLM (Fig. S1). The absolute recovery (%) was performed at three different concentrations: 0.95, 141.8, 212.7 µM. The recovery was expressed as the percentage of the extracted amount, by comparing the areas from the samples subjected to the extraction procedure with the areas from the analysis of standard solutions of the same concentration that were not submitted to the extraction process. To assess the within-day precision and accuracy, replicate analyzes (n = 5) of 200 µL of microsomal medium spiked at concentrations 0.38, 0.95; 141.8 and 236.3 µM was analyzed in a single day. For between-day assays, samples at the same concentration described above were analyzed for three consecutive days (n = 5) (Table S2). These samples were quantified using a new calibration curve prepared daily. The stability assays were performed to evaluate the PPL stability at three different conditions: (i) at room temperature (25 °C ± 2 °C, for 4 h), (ii) at incubation conditions (37 °C, for 60 min) and (iv) in the autosampler equipment (25 °C ± 2 °C, for 24 h). These assays aimed to evaluate the stability of PPL during sample preparation, during the metabolism reaction and during the analysis, respectively. […] The peak area obtained from the stability assays was quantified using a fresh analytical curve prepared daily. The samples were considered stable when the relative error (RE, %) from the nominal concentration was within ±15% and when the relative standard deviation (RSD%) was below 15% (Table S3).

[5] = biological target: CYP3A4 (Homo sapiens, UniProt P08684); experiment: biochemical
CYP3A4, sequence (P08684 whole entry): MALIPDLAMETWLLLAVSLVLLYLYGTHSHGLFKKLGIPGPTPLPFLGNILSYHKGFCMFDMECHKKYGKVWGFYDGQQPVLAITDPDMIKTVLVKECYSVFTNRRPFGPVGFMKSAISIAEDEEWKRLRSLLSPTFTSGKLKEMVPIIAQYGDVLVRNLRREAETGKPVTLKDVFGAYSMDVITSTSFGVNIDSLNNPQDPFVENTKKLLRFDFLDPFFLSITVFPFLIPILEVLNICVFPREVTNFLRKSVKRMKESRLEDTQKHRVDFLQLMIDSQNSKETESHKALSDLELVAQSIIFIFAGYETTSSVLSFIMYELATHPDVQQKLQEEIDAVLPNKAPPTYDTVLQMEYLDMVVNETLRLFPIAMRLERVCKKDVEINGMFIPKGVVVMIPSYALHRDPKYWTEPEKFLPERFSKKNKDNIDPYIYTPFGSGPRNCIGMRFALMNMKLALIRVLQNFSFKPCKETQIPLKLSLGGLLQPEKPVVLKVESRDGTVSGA

CYP1A2, sequence (P05177 whole entry): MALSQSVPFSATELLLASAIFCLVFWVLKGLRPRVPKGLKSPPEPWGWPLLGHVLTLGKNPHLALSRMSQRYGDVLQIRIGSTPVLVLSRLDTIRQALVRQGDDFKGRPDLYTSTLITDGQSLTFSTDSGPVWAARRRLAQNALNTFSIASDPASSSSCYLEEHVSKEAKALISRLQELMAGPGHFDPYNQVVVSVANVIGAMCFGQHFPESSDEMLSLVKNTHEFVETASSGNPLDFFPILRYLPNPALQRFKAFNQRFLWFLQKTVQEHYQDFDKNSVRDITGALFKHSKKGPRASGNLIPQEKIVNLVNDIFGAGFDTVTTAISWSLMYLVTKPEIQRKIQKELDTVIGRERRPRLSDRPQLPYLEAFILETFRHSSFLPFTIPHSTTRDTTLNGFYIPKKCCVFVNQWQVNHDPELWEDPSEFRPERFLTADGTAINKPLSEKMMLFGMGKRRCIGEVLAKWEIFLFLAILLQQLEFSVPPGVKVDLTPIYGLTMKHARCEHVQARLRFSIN

## COc1cc(/C=C/C(=O)N2CCC=CC2=O)cc(OC)c1OC [PPL, Piperlongumine]
[1]; HLM 0.45 mg/mL, 16 min
  Hill coefficient: 3.0
[1]; HLM 0.45 mg/mL, 16 min, sigmoidal profile
  S50: 127.7 µM
[1]; HLM 0.45 mg/mL, 16 min, substrate 0.38 to 283.6 μM, sigmoidal profile
  Vmax: 5.5 ± 0.5 nmol/mg protein/min
[1]; human vs rat liver microsomes, rat value ref 19
  S50 in human relative to the value observed in rats: 2.7 times
[2]
  fraction unbound at 127.7 μM: 0.76
[3]
  kinact: 0.000233 s⁻¹
[3]; read-out: KI (inactivation parameter)
  KI (inactivation): 8 µM
[4]; 37°C (1h), PPL 0.95 µM
  stability, RE (%) from nominal concentration: 0.6%
[4]; 37°C (1h), PPL 212.7 µM
  stability, RE (%) from nominal concentration: 0.0%
[4]; Auto injector (24 hs), PPL 0.95 µM
  stability, RE (%) from nominal concentration: -4.0%
[4]; Auto injector (24 hs), PPL 212.7 µM
  stability, RE (%) from nominal concentration: 0.0%
[4]; Room temperature (4 hs), PPL 0.95 µM
  stability, RE (%) from nominal concentration: 0.6%
[4]; Room temperature (4 hs), PPL 212.7 µM
  stability, RE (%) from nominal concentration: 6.0%
[5]
  IC50: > 100 µM

Reference: paper PMC5041077, “Metabolic profile and safety of piperlongumine” (Scientific Reports, 2016)
